Measured values: publication PMC9875641, “Ophthalmic Solution of Smart Supramolecular Peptides to Capture Semaphorin 4D against Diabetic Retinopathy” (Advanced Science, 2022)

How the values were obtained:
[1] = Intraocular distribution and retention after topical instillation; format: in vivo, mouse; details: for presence (retention) in the mice vitreous humor: FITC-labeled peptide eye drops, fluorescence of vitreous humor at different time points, n = 3 (each sample from 5 mice); for intraocular distribution of fluorescence after topical instillation: FITC-labeled peptide, 10 µL eye drop once, 12 h after instillation, fluorescence and LC/MS
Experimental: To study the intraocular distribution of the FITC‐labeled SSP‐1 and SSP‐2 after topical instillation, fluorescence observation and liquid chromatography‐mass spectrometry (LC/MS) were performed on the entire eyes of mice, the frozen sections of the eyes, and their vitreous humor (Figure 7A–D). […] The topical instillation of SSP eye drop was instilled once with 10 µL before fluorescence observation. However, intraocular injection was administrated once with the maximum volume of 2 µL to avoid overdose induced high intraocular pressure due to the limited volume of the vitreous cavity. […] Next, we studied the intraocular pharmacokinetics of SSP‐1 and SSP‐2 after topical instillation. […] Moreover, we established an in vitro blood‐retina barrier (BRB) model to investigate the transferring efficiency of SSP‐1 and SSP‐2 across the posterior ocular absorption barriers. […]
Intraocular Distribution of FG/FH. Male mice (20-25 g) derived from Charles River (Beijing, China) were used in this experiment. 10 μL FITC-labeled FH or FG (dissolved in artificial tear fluid, 20 nM) were gently dripped in the conjunctival sac.
The upper and lower eyelids were massaged to make homodisperse on the eye surface. After 12h FITC-labeled FH or FG were instilled, the mice were sacrificed and the eyeballs were wash in the PBS solution. luminescence signal was detected via the In-Vivo FX PRO system (Bruker).
Statistical analysis. Statistical analysis was conducted using Graphpad Prism 8.0 software. All data were expressed by mean ± SD. Unpaired two-tailed Student’s t-test (two groups) or one-way ANOVA (more than 2 groups) was used to analyze the statistical significances of the data. Person’s correlation analysis was conducted to […]

Zeta potential of SSPs = format: physicochemical; details: self-assembled SSP under aqueous condition
From the text: Artificial tears containing SSPs were developed and dropped into eyes. SSPs accumulated in the vitreous cavity. To examine the behavior of SSPs monomer in artificial tear, it was fast injected into water. Under the aqueous condition, the SSPs self‐assembled into spherical NPs or nanorods, a function of its to C16 and FFVLK domains with a hydrophobic unit. The morphology of SSP‐1 was NPs with the average size of 44.8 ± 2.9 nm. […] Besides, the zeta potential of SSP‐1 and SSP‐2 was positive charged with the value of 45.7 and 40.2 mV, respectively (Figure 3C). The positive charged SSPs penetrate blood‐eye barrier well.
In addition, KLVFF sequence, a sheet structure with strong hydrogen‐bonding was introduced into SSPs, we could distinctly observe the secondary structure of SSPs by circular dichroism (CD) spectroscopy. […] The percentage of β‐sheet after incubation with sSema4D in SSP‐1 and SSP‐2 were 85.6% and 42.3%, respectively, indicative of a highly organized packing of NFs in SSP‐1. […] The high percentage of β‐sheet structure in NFs stabilized the formation of nanostructure networks, due to its strong hydrogen‐bonding KLVFF sequence. Moreover, we carried out the cytotoxicity of SSP‐1 and SSP‐2 by using a standard CCK‐8 (Figure 3D). […] Finally, we investigated the recognition of sSema4D and SSP‐1 and SSP‐2 by confocal laser scanning microscope (CLSM).

Cy5-labeled sSema4D = target: T1, Cy5-labeled sSema4D (Homo sapiens, UniProt Q92854); experiment: CLSM recognition and capture of sSema4D; format: binding; details: FITC-labeled SSP with Cy5-labeled sSema4D, 6 h
T1 construct: purchased Novoprotein Ltd. (Suzhou, China)
T1 sequence (Q92854 22-734 limits assumed): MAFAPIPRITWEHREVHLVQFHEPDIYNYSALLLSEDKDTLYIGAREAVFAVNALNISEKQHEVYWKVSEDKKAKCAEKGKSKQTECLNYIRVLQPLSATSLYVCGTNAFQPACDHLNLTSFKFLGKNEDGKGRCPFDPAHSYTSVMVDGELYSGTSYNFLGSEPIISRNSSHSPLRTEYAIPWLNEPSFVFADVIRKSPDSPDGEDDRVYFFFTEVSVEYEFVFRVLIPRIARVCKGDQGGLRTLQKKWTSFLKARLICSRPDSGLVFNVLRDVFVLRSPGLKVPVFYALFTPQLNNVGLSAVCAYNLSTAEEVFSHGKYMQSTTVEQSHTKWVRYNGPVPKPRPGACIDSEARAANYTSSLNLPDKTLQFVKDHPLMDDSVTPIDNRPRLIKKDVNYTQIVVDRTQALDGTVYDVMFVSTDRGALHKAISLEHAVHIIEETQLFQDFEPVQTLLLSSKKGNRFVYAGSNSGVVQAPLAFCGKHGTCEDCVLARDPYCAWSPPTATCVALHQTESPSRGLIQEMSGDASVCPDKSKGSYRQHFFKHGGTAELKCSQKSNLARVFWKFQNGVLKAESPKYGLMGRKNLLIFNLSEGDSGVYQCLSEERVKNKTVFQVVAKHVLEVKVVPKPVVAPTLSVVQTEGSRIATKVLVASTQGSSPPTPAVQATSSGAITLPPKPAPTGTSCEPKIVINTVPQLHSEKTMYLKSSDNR
Experimental: FITC‐labeled SSP‐1 or SSP‐2 and Cy5‐labeled sSema4D proteins were synthesized. Cy5‐labeled sSema4D were incubated with FITC‐labeled SSP‐1 and SSP‐2 nanostructure solutions for 6 h, respectively. […]
a resolution of 1.0 nm and a scanning speed of 300 nm/min. For each measurement, three spectra were collected and averaged.
CLSM observation. Sema4D protein was purchased from Novoprotein Ltd. (Suzhou, China). Sema4D protein cultured with SSP-1 or SSP-2 nanomaterials (30 μM) for 4 h were imaged using a Zeiss LSM710 confocal laser scanning microscope
(Ultra-VIEWVox, PerkinElmer). The parameters of confocal laser scanning microscope was a 40× objective lens.
Patient. Vitreous humor samples of DR patients were obtained immediately before intravitreal injection of anti-VEGF agents. Control vitreous humor samples were collected from nondiabetic patients receiving surgery for idiopathic macular hole. All of the human vitreous humor samples were collected based on informed consent. The vitreous samples were centrifuged at 4°C, and the supernatants were aliquoted into several sterile tubes and stored at -80°C. The procedure was approved by an ethics committee of Tongji Medical College, Huazhong University of Science and Technology, and strictly followed the Declaration of Helsinki guidelines.
Cell culture. […]

Substance	presence (retention) in the mice vitreous humor [1]	intraocular distribution of fluorescence after topical instillation [1]	zeta potential (Zeta potential of SSPs) [mV]	recognition and trapping of sSema4D (merge images) (Cy5-labeled sSema4D)
C16‐FFVLK‐KQKRPRH [SSP-1, smart supramolecular peptide, C16‐FFVLK‐KQKRPRH, self-assembling, captures sSema4D]	up to 5 days	mainly in the retina and vitreous humor	45.7	could completely cover the sSema4D
C16‐FFVLK‐KNKAAKG [SSP-2, smart supramolecular peptide, C16‐FFVLK‐KNKAAKG, self-assembling, captures sSema4D]	up to 5 days	mainly in the retina and vitreous humor	40.2	could completely cover the sSema4D
